# Patent publication US10780090B2, “Heteroaryl compounds useful as inhibitors of SUMO activating enzyme” (Millennium Pharmaceuticals, Inc., priority 2014, dated 2020)
# Biological target: recombinant human SAE enzyme (Homo sapiens (Human), UniProt Q9UBT2)
# Assay: SAE HTRF enzyme assay
# Assay type: biochemical
# Conditions: for Percent Inhibition: Concentration 0.111 μM; for IC50: class symbols A/B/C
# How it was run: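 0.11 nM SAE incubated with 0.5 μM ATP, 0.01 μM Ubc9-GST and 0.125 μM Sumo-Flag in HEPES pH 7.5, MgCl2, GSH, BSA, ±inhibitor, 105 min at 24° C. EDTA stop; Eu-cryptate anti-Flag/XL-APC anti-GST HTRF read after 2 h. Values given as single-concentration % inhibition or IC50.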
# Chain of recombinant human SAE enzyme (Q9UBT2 whole entry): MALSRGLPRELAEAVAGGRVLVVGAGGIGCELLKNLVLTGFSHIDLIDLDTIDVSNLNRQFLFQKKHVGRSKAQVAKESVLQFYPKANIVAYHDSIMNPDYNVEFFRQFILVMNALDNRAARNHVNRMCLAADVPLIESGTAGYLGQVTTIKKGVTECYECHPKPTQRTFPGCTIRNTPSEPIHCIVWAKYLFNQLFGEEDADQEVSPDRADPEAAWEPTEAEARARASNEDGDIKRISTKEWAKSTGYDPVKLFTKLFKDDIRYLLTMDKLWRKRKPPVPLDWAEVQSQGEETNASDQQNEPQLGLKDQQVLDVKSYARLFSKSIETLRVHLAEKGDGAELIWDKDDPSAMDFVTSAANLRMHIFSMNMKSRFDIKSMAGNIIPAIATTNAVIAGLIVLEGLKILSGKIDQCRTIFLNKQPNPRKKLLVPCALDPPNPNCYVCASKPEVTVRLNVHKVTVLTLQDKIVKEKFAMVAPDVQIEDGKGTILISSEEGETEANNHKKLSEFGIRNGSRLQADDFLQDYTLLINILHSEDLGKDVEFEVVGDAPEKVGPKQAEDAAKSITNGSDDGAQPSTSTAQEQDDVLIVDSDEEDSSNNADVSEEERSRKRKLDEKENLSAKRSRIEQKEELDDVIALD
# Chain of recombinant human SAE enzyme (Q9UBE0 whole entry partner): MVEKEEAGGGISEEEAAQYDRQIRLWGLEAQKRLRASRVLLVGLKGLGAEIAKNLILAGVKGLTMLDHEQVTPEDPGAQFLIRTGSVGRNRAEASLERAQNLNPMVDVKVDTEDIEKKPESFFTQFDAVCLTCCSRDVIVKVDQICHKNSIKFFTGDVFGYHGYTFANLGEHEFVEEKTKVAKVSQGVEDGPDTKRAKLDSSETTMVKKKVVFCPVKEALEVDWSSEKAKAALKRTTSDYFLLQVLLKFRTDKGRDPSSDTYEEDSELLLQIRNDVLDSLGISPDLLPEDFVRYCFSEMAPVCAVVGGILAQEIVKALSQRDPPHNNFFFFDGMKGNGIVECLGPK
SMILES,Percent Inhibition,IC50
"NS(=O)(=O)OC[C@H]1C[C@@H](Nc2ncncc2C(=O)c2cc([C@@]3(C4=CCCCC4)CCCO3)cs2)C[C@@H]1O (mixture of isomers) [I-116, [(1R,2S,4R)-4-{[5-({4-[(2S)-2-(cyclohex-1-en-1-yl)tetrahydrofuran-2-yl]-2-thienyl}carbonyl)pyrimidin-4-yl]amino}-2-hydroxycyclopentyl]methyl sulfamate and [(1R,2S,4R)-4-{[5-({4-[(2R)-2-(cyclohex-1-en-1-yl)tetrahydrofuran-2-yl]-2-thienyl}carbonyl)pyrimidin-4-yl]amino}-2-hydroxycyclopentyl]methyl sulfamate]",96,< 10 nM
"C[C@@H](c1cccc(Cl)c1)c1csc(C(=O)c2cncnc2N[C@@H]2C[C@H](COS(N)(=O)=O)[C@@H](O)C2)c1 (mixture of isomers) [I-117, [(1R,2S,4R)-4-{[5-({4-[(1S)-1-(3-chlorophenyl)ethyl]-2-thienyl}carbonyl)pyrimidin-4-yl]amino}-2-hydroxycyclopentyl]methyl sulfamate and [(1R,2S,4R)-4-{[5-({4-[(1R)-1-(3-chlorophenyl)ethyl]-2-thienyl}carbonyl)pyrimidin-4-yl]amino}-2-hydroxycyclopentyl]methyl sulfamate]",93,< 10 nM
"Cc1sc(C(=O)c2cncnc2N[C@@H]2C[C@H](COS(N)(=O)=O)[C@@H](O)C2)cc1[C@@]1(c2ccccc2)CCCO1 (mixture of isomers) [I-121, [(1R,2S,4R)-2-hydroxy-4-{[5-({5-methyl-4-[(2S)-2-phenyltetrahydrofuran-2-yl]-2-thienyl}carbonyl)pyrimidin-4-yl]amino}cyclopentyl]methyl sulfamate and [(1R,2S,4R)-2-hydroxy-4-{[5-({5-methyl-4-[(2R)-2-phenyltetrahydrofuran-2-yl]-2-thienyl}carbonyl)pyrimidin-4-yl]amino}cyclopentyl]methyl sulfamate]",98,< 10 nM
"NS(=O)(=O)OC[C@H]1C[C@@H](Nc2ncncc2C(=O)c2cc([S@+]([O-])c3cccc(C(F)(F)F)c3)c(Cl)s2)C[C@@H]1O (mixture of isomers) [I-122, [(1R,2S,4R)-4-({5-[(5-chloro-4-{(R)-[3-(trifluoromethyl)phenyl]sulfinyl}-2-thienyl)carbonyl]pyrimidin-4-yl}amino)-2-hydroxycyclopentyl]methyl sulfamate and [(1R,2S,4R)-4-({5-[(5-chloro-4-{(S)-[3-(trifluoromethyl)phenyl]sulfinyl}-2-thienyl)carbonyl]pyrimidin-4-yl}amino)-2-hydroxycyclopentyl]methyl sulfamate]",98,< 10 nM
"Cc1sc(C(=O)c2cncnc2N[C@@H]2C[C@H](COS(N)(=O)=O)[C@@H](O)C2)cc1[C@H](C)c1cccc(Cl)c1 (mixture of isomers) [I-135, [(1R,2S,4R)-4-{[5-({4-[(1R)-1-(3-chlorophenyl)ethyl]-5-methyl-2-thienyl}carbonyl)pyrimidin-4-yl]amino}-2-hydroxycyclopentyl]methyl sulfamate and [(1R,2S,4R)-4-{[5-({4-[(1S)-1-(3-chlorophenyl)ethyl]-5-methyl-2-thienyl}carbonyl)pyrimidin-4-yl]amino}-2-hydroxycyclopentyl]methyl sulfamate]",94,10 to 100 nM
"C=C(C)[C@H](O)c1cc(C(=O)c2cncnc2N[C@@H]2C[C@H](COS(N)(=O)=O)[C@@H](O)C2)sc1Cl (mixture of isomers) [I-141, [(1R,2S,4R)-4-{[5-({5-chloro-4-[(1S)-1-hydroxy-2-methylprop-2-en-1-yl]-2-thienyl}carbonyl)pyrimidin-4-yl]amino}-2-hydroxycyclopentyl]methyl sulfamate and [(1R,2S,4R)-4-{[5-({5-chloro-4-[(1R)-1-hydroxy-2-methylprop-2-en-1-yl]-2-thienyl}carbonyl)pyrimidin-4-yl]amino}-2-hydroxycyclopentyl]methyl sulfamate]",95,< 10 nM
"NS(=O)(=O)OC[C@H]1C[C@@H](Nc2ncncc2C(=O)c2cc([C@H](O)c3cc(Cl)ccc3Cl)c(Cl)s2)C[C@@H]1O (mixture of isomers) [I-149, [(1R,2S,4R)-4-{[5-({5-chloro-4-[(R)-(2,5-dichlorophenyl)(hydroxy)methyl]-2-thienyl}carbonyl)pyrimidin-4-yl]amino}-2-hydroxycyclopentyl]methyl sulfamate and [(1R,2S,4R)-4-{[5-({5-chloro-4-[(S)-(2,5-dichlorophenyl)(hydroxy)methyl]-2-thienyl}carbonyl)pyrimidin-4-yl]amino}-2-hydroxycyclopentyl]methyl sulfamate]",97,< 10 nM
"CC(O)(c1cccc(Cl)c1)c1ccc(C(=O)c2cncnc2NC2CC(O)C(COS(N)(=O)=O)C2)s1 (mixture of isomers) [I-152, [(1R,2S,4R)-4-{[5-({5-[(1R)-1-(3-chlorophenyl)-1-hydroxyethyl]-2-thienyl}carbonyl)pyrimidin-4-yl]amino}-2-hydroxycyclopentyl]methyl sulfamate and [(1R,2S,4R)-4-{[5-({5-[(1S)-1-(3-chlorophenyl)-1-hydroxyethyl]-2-thienyl}carbonyl)pyrimidin-4-yl]amino}-2-hydroxycyclopentyl]methyl sulfamate]",93,< 10 nM
"CN(C)C(c1cccc(Cl)c1)c1csc(C(=O)c2cncnc2NC2CC(O)C(COS(N)(=O)=O)C2)c1 (mixture of isomers) [I-153, [(1R,2S,4R)-4-{[5-({4-[(R)-(3-Chlorophenyl)(dimethylamino)methyl]-2-thienyl}carbonyl)pyrimidin-4-yl]amino}-2-hydroxycyclopentyl]methyl sulfamate and [(1R,2S,4R)-4-{[5-({4-[(S)-(3-chlorophenyl)(dimethylamino)methyl]-2-thienyl}carbonyl)pyrimidin-4-yl]amino}-2-hydroxycyclopentyl]methyl sulfamate]",86,10 to 100 nM
"NS(=O)(=O)OCC1CC(Nc2ncncc2C(=O)c2cc(C3(c4cccc(Cl)c4)CCCCO3)cs2)CC1O (mixture of isomers) [I-154, [(1R,2S,4R)-4-{[5-({4-[(2R)-2-(3-chlorophenyl)tetrahydro-2H-pyran-2-yl]-2-thienyl}carbonyl)pyrimidin-4-yl]amino}-2-hydroxycyclopentyl]methyl sulfamate and [(1R,2S,4R)-4-{[5-({4-[(2S)-2-(3-chlorophenyl)tetrahydro-2H-pyran-2-yl]-2-thienyl}carbonyl)pyrimidin-4-yl]amino}-2-hydroxycyclopentyl]methyl sulfamate]",95,< 10 nM
"NS(=O)(=O)OC[C@H]1C[C@@H](Nc2ncncc2C(=O)c2cc([C@@]3(C4CCCCC4)CCCO3)cs2)C[C@@H]1O (mixture of isomers) [I-166, [(1R,2S,4R)-4-{[5-({4-[(2S)-2-cyclohexyltetrahydrofuran-2-yl]-2-thienyl}carbonyl)pyrimidin-4-yl]amino}-2-hydroxycyclopentyl]methyl sulfamate and [(1R,2S,4R)-4-{[5-({4-[(2R)-2-cyclohexyltetrahydrofuran-2-yl]-2-thienyl}carbonyl)pyrimidin-4-yl]amino}-2-hydroxycyclopentyl]methyl sulfamate]",93,10 to 100 nM
"NS(=O)(=O)OC[C@H]1C[C@@H](Nc2ncncc2C(=O)c2cc([C@H](O)C3CCCCC3)c(Cl)s2)C[C@@H]1O (mixture of isomers) [I-172, [(1R,2S,4R)-4-{[5-({5-chloro-4-[(R)-cyclohexyl(hydroxy)methyl]-2-thienyl}carbonyl)pyrimidin-4-yl]amino}-2-hydroxycyclopentyl]methyl sulfamate and [(1R,2S,4R)-4-{[5-({5-chloro-4-[(S)-cyclohexyl(hydroxy)methyl]-2-thienyl}carbonyl)pyrimidin-4-yl]amino}-2-hydroxycyclopentyl]methyl sulfamate]",88,10 to 100 nM
"NS(=O)(=O)OC[C@H]1C[C@@H](Nc2ncncc2C(=O)c2cc([C@H](O)C3CCOCC3)c(Cl)s2)C[C@@H]1O (mixture of isomers) [I-174, [(1R,2S,4R)-4-{[5-({5-chloro-4-[(R)-hydroxy(tetrahydro-2H-pyran-4-yl)methyl]-2-thienyl}carbonyl)pyrimidin-4-yl]amino}-2-hydroxycyclopentyl]methyl sulfamate and [(1R,2S,4R)-4-{[5-({5-chloro-4-[(S)-hydroxy(tetrahydro-2H-pyran-4-yl)methyl]-2-thienyl}carbonyl)pyrimidin-4-yl]amino}-2-hydroxycyclopentyl]methyl sulfamate]",89,10 to 100 nM
"CC(C)[C@@H](O)c1cc(C(=O)c2cncnc2N[C@@H]2C[C@H](COS(N)(=O)=O)[C@@H](O)C2)sc1Cl (mixture of isomers) [I-195, [(1R,2S,4R)-4-{[5-({5-chloro-4-[(1R)-1-hydroxy-2-methylpropyl]-2-thienyl}carbonyl)pyrimidin-4-yl]amino}-2-hydroxycyclopentyl]methyl sulfamate and [(1R,2S,4R)-4-{[5-({5-chloro-4-[(1S)-1-hydroxy-2-methylpropyl]-2-thienyl}carbonyl)pyrimidin-4-yl]amino}-2-hydroxycyclopentyl]methyl sulfamate]",68,10 to 100 nM
